Test: mn = molality of the nth substance listed, in mol/kg
Settings: 298.15 K, 101 kPa, Liquid; for speed of sound: Sing-around technique in a fixed-path interferometer

CC(=O)[O-].[Na+] [sodium ethanoate] + O
Settings	speed of sound [m/s]
m1 = 0.5	1547.6
m1 = 1	1590.4
m1 = 2	1658
m1 = 4	1761.8

N[C@@H](CO)C(=O)O [L-serine] + O
Settings	mass density [kg/m3]	speed of sound [m/s]
m1 = 0.1015	1001.52	1503
m1 = 0.1508	1003.67	1506.1
m1 = 0.1958	1005.62	1509
m1 = 0.2564	1008.21	1512.7
m1 = 0.2888	1009.59	1514.9
m1 = 0.3655	1012.8	1519.8

C[C@@H](O)[C@H](N)C(=O)O [L-threonine] + O
Settings	mass density [kg/m3]	speed of sound [m/s]
m1 = 0.04618	998.993	–
m1 = 0.1013	1001.29	1504.7
m1 = 0.1405	1002.91	1507.7
m1 = 0.1798	1004.51	1510.9
m1 = 0.2227	1006.26	1514.3
m1 = 0.2524	1007.45	1516.6
m1 = 0.2755	1008.38	1518.7

CC(=O)[O-].CC(=O)[O-].[Mg+2] [magnesium acetate] + O
Settings	speed of sound [m/s]
m1 = 0.5	1571.7
m1 = 1	1630.4
m1 = 1.5	1680.2
m1 = 2	1724.4

— the NIST ThermoML archive (doi:10.1016/j.jct.2006.08.003)
